# From patent US6534522B2, “Subtype-selective NMDA receptor ligands and the use thereof” (Warner-Lambert Company, priority 1995, dated 2003)
# Where a name gives a salt, the structure may show the parent alone. Read-outs that look alike come from different tables or passages of the source.
# Assays:
# Type in all cases: cell-based
# NR1A/2A NMDA receptor = NR1A/2A NMDA receptor (Rattus norvegicus, UniProt P35439+Q00959); assay: Xenopus oocyte expression system, two-electrode voltage clamp, NR1A/2A
# Excerpt: (§1) Electrophysiological assays may be utilized to characterize the actions of potential subtype-selective ligands at NMDA receptors expressed in Xenopus oocytes. The ligand may be assayed at the different subunit combinations of cloned rat NMDA receptors corresponding to the four putative NMDA receptor subtypes (Moriyoshi et al., Nature (Lond.) 354:31-37 (1991); Monyer et al., Science (Washington, D.C.) 256:1217-1221 (1992); Kutsuwada et al., Nature (Lond.) 358:36-41 (1992); Sugihara et al., Biochem. Biophys. Res. Comm. 185:826-832 (1992)).
# (§2) Using fixed saturating concentrations of agonists (glutamate 100 μM, glycine 1-10 μM depending on subunit combination), the inhibitory potency of a putative subtype-selective ligand may be assayed at the NMDA receptors assembled from NR1A/2A, NR1A/2B, NR1A/2C and NR1A/2D subunit combinations.
# (§3) The Xenopus oocyte expression system. Mature female Xenopus laevis were anaesthetized (20-40 min) using 0.15% 3-aminobenzoic acid ethyl ester (MS-222) and 2-4 ovarian lobes were surgically removed. Oocytes at developmental stages IV-VI (Dumont, J. N., J. Morphol. 136:153-180 (1972)), were dissected from the ovary still surrounded by enveloping ovarian tissues. Follicle-enclosed oocytes were micro-injected with 1:1 mixtures of cRNA:NR1A+NR2A, 2B, 2C or 2D; injecting ˜2, 5, or 20 ng of RNA encoding each receptor subunit. NR1A encoding cRNA was injected alone at ˜20 ng. Oocytes were stored in Barth's medium containing (in mM): NaCl, 88; KCl, 1; CaCl2, 0.41; Ca(NO3)2, 0.33; MgSO4, 0.82; NaHCO3, 2.4; HEPES 5; pH 7.4, with 0.1 mg/mL gentamycin sulphate. While oocytes were still surrounded by enveloping ovarian tissues the Barth's medium was supplemented with 0.1% bovine serum. Oocytes were defolliculated 1-2 days following injections by treatment with collagenase (0.5 mg/mL Sigma Type I for 0.5-1 hr) (Miledi and Woodward, J. Physiol. (Lond.) 416:601-621 (1989)) and subsequently stored in serum-free medium.
# (§4) Electrical recordings were made using a conventional two-electrode voltage clamp (Dagan TEV-200) over periods ranging between 3-21 days following injection. Oocytes were placed in a 0.1 mL recording chamber continuously perfused (5-15 mL min^−1) with frog Ringer's solution containing (in mM): NaCl, 115; KCl, 2; CaCl2, 1.8; HEPES, 5; pH 7.4. Drugs were applied by bath perfusion. When using the more rapid flow rates, half-times for mid-chamber solution changes were between 2-3 sec, however, exchange rates for drug solutions at the oocyte surface (i.e. beneath the vitelline envelope and among the tangles of microvilli) were probably considerably longer (Woodward et al., Mol. Pharmacol. 41:89-103 (1992)). Zero-Ca^2+/Ba^2+ Ringer had the composition (in mM): NaCl, 115; KCl, 2; BaCl2, 1.8; HEPES, 5; pH 7.4. Intraoocyte injections were made by pneumatic pressure-pulse ejection from micropipettes (Miledi and Parker, J. Physiol. (Lond.) 357:173-183 (1984)). Injection solutions of EGTA (40-400 mM) and BAPTA (50-500 mM) were made up in H2O, pH adjusted to 7.4 with KOH or HCl, and filtered to minimize plugging (Acrodisc-13, […]). Pressure was set between 200-400 kPa. The volume of injections was regulated by adjusting the time of pulses (0.1-1 sec) and was estimated by measuring the diameters of ejected droplets.
# (§5) Concentration-inhibition curves were fit with equation 2.
# (§6) I/Icontrol=1/(1+([antagonist]/10^−pIC50)^n) Eq. 2
# (§7) in which Icontrol is the current evoked by agonists alone, pIC50=−log IC50, […] is the concentration of antagonist that produces half maximal inhibition, and n is the slope factor. For incomplete curves analysis by fitting was unreliable and IC50 values were calculated by simple regression over linear portions of the curves (Origin: Microcal Software).
# (§8) Drugs were initially dissolved at concentrations of 10-100 mM in DMSO. Dilutions were then made to generate a series of DMSO stock solutions over the range 10 μM to 100 mM. Working solutions were made by 1000-3000 fold dilution of stocks into Ringer. […]
# NR1A/2B NMDA receptor = NR1A/2B NMDA receptor (Rattus norvegicus, UniProt P35439+Q00960); assay: Xenopus oocyte expression system, two-electrode voltage clamp, NR1A/2B
# Excerpt: as §1, §2, §3, §4, §5, §6, §7, §8
# NR1A/2C NMDA receptor = NR1A/2C NMDA receptor (Rattus norvegicus, UniProt P35439+Q00961); assay: Xenopus oocyte expression system, two-electrode voltage clamp, NR1A/2C
# Excerpt: as §1, §2, §3, §4, §5, §6, §7, §8
# [1] = cloned NR1A/2A subunits expressed in Xenopus oocytes, inhibition of agonist-evoked membrane current, read-out: 1A/2A IC50
# [2] = cloned NR1A/2B subunits expressed in Xenopus oocytes, inhibition of agonist-evoked membrane current, read-out: 1A/2B IC50
# [3] = cloned NR1A/2C subunits expressed in Xenopus oocytes, inhibition of agonist-evoked membrane current, read-out: 1A/2C IC50
# Chain of NR1A/2C NMDA receptor (Q00961 20-1237, other chains not shown): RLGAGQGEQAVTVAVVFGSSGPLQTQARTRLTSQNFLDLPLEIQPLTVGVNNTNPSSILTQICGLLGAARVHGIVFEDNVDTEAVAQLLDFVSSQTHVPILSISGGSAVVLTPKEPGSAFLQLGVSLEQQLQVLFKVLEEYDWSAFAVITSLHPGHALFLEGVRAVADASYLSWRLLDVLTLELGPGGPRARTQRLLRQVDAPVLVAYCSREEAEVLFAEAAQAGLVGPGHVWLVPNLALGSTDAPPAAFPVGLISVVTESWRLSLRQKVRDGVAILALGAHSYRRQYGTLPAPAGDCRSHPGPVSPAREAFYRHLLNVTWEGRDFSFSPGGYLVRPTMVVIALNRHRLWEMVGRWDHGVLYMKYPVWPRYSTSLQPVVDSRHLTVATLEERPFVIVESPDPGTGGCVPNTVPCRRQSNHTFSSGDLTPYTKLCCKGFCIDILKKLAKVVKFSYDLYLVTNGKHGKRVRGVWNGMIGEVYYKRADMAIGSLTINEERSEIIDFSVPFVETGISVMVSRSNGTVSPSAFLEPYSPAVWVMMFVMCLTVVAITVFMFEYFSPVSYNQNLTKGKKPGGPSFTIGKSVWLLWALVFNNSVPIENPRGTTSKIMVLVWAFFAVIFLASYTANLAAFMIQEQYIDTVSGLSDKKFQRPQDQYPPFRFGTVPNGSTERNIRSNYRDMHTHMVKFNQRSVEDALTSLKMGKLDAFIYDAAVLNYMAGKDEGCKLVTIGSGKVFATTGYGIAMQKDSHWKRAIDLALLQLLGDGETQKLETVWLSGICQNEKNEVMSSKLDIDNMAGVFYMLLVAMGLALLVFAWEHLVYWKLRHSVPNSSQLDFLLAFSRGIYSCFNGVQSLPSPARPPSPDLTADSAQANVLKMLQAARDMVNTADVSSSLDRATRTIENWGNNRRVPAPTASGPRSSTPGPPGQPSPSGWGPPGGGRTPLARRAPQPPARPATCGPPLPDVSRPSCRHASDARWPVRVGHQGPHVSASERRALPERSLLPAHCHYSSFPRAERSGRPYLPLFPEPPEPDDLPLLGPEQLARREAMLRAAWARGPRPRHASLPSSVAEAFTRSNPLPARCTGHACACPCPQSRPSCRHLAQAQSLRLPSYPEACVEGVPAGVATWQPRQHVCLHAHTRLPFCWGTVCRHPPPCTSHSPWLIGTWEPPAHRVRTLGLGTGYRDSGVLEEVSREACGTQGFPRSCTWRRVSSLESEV
# Chain of NR1A/2A NMDA receptor (Q00959 20-1464 limits assumed, other chains not shown): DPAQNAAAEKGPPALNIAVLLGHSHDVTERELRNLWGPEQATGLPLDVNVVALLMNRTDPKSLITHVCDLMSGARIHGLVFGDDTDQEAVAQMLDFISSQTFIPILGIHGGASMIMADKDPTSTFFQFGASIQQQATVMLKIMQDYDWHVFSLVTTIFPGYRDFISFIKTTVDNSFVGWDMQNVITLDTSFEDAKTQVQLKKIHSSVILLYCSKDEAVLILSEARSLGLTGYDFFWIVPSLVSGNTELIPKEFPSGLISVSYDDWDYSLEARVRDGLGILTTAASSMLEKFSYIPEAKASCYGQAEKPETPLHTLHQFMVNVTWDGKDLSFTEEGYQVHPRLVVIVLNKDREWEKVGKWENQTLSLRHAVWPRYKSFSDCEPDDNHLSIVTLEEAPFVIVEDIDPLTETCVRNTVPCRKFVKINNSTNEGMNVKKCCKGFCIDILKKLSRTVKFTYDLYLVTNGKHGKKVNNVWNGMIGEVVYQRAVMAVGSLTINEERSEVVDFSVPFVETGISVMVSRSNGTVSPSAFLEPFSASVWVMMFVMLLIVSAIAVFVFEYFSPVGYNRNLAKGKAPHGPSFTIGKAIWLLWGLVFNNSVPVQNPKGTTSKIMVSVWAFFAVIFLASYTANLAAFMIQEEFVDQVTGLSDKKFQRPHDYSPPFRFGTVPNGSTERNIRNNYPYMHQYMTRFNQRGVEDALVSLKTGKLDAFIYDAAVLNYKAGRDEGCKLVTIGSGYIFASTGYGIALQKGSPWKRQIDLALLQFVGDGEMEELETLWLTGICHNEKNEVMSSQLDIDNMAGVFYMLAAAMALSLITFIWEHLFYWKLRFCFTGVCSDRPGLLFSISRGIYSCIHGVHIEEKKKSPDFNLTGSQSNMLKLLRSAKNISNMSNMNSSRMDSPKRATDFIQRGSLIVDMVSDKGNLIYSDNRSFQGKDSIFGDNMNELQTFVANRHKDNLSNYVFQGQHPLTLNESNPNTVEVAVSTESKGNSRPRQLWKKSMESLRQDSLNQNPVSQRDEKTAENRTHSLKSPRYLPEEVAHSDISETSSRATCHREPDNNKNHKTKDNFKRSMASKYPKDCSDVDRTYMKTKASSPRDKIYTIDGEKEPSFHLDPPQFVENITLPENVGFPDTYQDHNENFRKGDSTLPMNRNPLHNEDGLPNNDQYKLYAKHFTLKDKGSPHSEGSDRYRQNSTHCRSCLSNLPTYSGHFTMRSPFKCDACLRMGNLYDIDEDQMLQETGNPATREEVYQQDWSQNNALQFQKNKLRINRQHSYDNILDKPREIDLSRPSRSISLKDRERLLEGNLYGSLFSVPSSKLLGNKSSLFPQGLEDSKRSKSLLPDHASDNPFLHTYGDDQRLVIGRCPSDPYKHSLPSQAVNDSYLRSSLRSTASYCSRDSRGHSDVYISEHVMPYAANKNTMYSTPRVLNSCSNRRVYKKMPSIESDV
# Chain of NR1A/2B NMDA receptor (Q00960 27-1482, other chains not shown): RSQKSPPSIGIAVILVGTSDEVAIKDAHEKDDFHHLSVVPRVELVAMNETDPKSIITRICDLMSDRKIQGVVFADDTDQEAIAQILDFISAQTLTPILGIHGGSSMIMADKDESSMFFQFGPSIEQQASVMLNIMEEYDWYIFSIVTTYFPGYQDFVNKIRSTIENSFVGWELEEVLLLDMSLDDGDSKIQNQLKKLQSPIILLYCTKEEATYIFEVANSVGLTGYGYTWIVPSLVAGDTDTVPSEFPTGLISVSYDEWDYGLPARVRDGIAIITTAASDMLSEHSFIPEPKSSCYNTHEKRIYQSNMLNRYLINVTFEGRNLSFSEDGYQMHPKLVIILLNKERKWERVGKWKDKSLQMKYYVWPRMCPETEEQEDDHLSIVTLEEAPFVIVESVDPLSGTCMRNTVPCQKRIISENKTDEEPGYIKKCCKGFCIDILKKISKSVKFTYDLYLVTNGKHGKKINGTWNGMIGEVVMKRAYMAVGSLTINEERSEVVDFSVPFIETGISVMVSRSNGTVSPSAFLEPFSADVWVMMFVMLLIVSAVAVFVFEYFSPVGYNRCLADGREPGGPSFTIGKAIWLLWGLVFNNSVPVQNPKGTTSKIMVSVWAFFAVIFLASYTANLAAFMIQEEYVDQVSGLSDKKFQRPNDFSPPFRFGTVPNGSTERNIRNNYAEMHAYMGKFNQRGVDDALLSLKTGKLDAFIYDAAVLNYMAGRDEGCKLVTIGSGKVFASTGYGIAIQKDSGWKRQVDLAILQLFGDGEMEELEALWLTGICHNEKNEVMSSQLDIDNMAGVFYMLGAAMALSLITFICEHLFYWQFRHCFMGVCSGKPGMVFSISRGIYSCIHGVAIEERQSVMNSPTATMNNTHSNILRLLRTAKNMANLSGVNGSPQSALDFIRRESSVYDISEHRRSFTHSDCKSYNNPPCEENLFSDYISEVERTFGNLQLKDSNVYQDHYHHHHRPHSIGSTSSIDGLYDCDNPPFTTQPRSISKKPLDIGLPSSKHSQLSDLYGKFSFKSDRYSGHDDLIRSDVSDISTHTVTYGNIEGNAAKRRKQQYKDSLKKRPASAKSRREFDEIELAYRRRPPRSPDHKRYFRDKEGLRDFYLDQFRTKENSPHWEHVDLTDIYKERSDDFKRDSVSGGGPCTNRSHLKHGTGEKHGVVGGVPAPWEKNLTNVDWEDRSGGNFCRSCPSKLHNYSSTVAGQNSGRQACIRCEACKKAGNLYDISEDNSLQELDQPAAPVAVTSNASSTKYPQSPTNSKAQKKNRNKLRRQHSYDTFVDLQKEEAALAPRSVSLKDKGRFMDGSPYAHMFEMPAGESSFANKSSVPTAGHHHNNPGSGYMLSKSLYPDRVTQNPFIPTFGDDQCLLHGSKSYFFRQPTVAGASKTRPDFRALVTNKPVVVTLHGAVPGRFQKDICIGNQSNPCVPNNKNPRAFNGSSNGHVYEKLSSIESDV
Compound,IC50 (NR1A/2A NMDA receptor; [1]) [µM],IC50 (NR1A/2B NMDA receptor; [2]) [µM],IC50 (NR1A/2C NMDA receptor; [3]) [µM],IC50 (NR1A/2A NMDA receptor) [µM],IC50 (NR1A/2B NMDA receptor) [µM],IC50 (NR1A/2C NMDA receptor) [µM]
"OCC1CC2CC(Cc3ccccc3)CCN2C1 (stereo not drawn) [Ex. 88, 7-Benzyl-1,2,3,5,6,7,8,9-octahydro-2-(hydroxymethyl)indolizine]",> 300,5,> 300,–,–,–
"C=CC[N+]1(CC=C)CCCCC1Cc1ccccc1 (stereo not drawn) [Ex. 38(B), 2-benzyl-l,1-diallylpiperidinium iodide]",28,50,50,–,–,–
"CC(O)CCN1CCC(Cc2ccc(N)cc2)CC1 (stereo not drawn) [Ex. 105, 4-(4-aminobenzyl)-1-(3-hydroxy-butyl) piperidine hydrochloride]",120,17,> 300,–,–,–
"C[C@@H](CO)CN1CCC(Cc2ccc(F)cc2)CC1 [Ex. 92, (R)-4-(4-Fluorobenzyl)-1-(3-hydroxy-2-methylpropyl) piperidine hydrochloride]",> 300,8,> 300,–,–,–
"CCOC(=O)CCCN1CCCC(Cc2ccccc2)C1 (stereo not drawn) [Ex. 35, 4-(3-Benzylpiperidinyl)butyric acid ethyl ester]",> 300,150,> 300,–,–,–
"O=C(c1ccccc1)C1CCN(CCOc2ccccc2)CC1 [Ex. 27, 4-Benzoyl-1-(2-phenoxyethyl)piperidine]",> 300,50,> 300,–,–,–
"O=C(CCCN1CCC(O)CC1)c1ccccc1 [Ex. 13, 4-(4-Hydroxypiperidinyl) butyrophenone]",80,53,140,–,–,–
1-(2-Phenylethyl)-4-benzylidenepiperidine [Ex. 15],60,5.5,230,–,–,–
"OCCCCN1CCC(Cc2ccccc2)CC1 [Ex. 86, 4-Benzyl-1-(4-hydroxybutyl)piperidine hydrobromide]",> 300,12,> 300,–,–,–
"Fc1cccc(C=C2CCN(Cc3ccccc3)CC2)c1 [Ex. 9, 1-Benzyl-4-(m-fluorobenzylidene)piperidine]",240,14,> 300,–,–,–
"O=c1[nH]c2ccc(OCCCN3CCc4ccccc4C3)cc2[nH]1 [Ex. 108, N-(3-(2-oxobenzimidazol-5-oxy)propyl)-1,2,3,4-tetrahydroisoquinoline]",24,7.5,> 300,–,–,–
"C#CCCN1CCC(Cc2ccccc2)CC1 [Ex. 6, 4-benzyl-1-(3-Butynyl)piperidine]",> 300,2.3,> 300,–,–,–
"OCCCN1CCC(Cc2ccc(F)cc2)CC1 [Ex. 90, 4-(4-Fluorobenzyl)-1-(3-hydroxypropyl) piperidine hydrobromide]",> 300,1.3,> 300,–,–,–
"NNC(=O)CCCCN1CCC(Cc2ccccc2)CC1 [Ex. 3, 4-Benzylpiperidylpentahydrazide]",> 300,4,> 300,–,–,–
"O=C(Nc1ccc([N+](=O)[O-])cc1)N1CCC(Cc2ccccc2)CC1 [Ex. 30, 1-[2-aza-1-oxo-2-(4-nitrophenyl)ethyl]-4-benzylpiperidine]",95,8,> 100,–,–,–
"OC1(Cc2ccccc2)CCN(CCCc2ccccc2)CC1 [Ex. 16, 4-Benzyl-4-hydroxy-1-(3-phenylpropyl)piperidine]",20,17,80,–,–,–
"NC(=O)CCCCN1CCC(Cc2ccccc2)CC1 [Ex. 2, 4-Benzylpiperidylpentamide]",> 300,1.6,> 300,–,–,–
"O=C(c1cccc(F)c1)C1CCN(CCCCc2ccccc2)CC1 [(C), 4-(3′-fluorobenzoyl)-1-(4″-phenylbutyl)piperidine]",> 300,10,> 300,–,–,–
"C#CCCN1CCC(O)(c2ccc(Cl)cc2)CC1 [Ex. 7, 1-(3-Butynyl)-4-(p-chlorphenyl)-4-hydroxypiperidine]",> 300,65,> 300,–,–,–
"c1ccc(OCCCN2CCc3ccccc3C2)cc1 [Ex. 19, N-(3-Phenoxypropyl)-1,2,3,4-tetrahydroisoquinoline]",75,10,275,–,–,–
"c1ccc(OCCN2CCc3ccccc3C2)cc1 [Ex. 18, N-(2-Phenoxyethyl)-1,2,3,4-tetrahydroisoquinoline]",140,35,> 100,–,–,–
"COC(=O)CCCCN1CCCC(Cc2ccccc2)C1 (stereo not drawn) [Ex. 34, 5-(3-Benzylpiperidinyl)valeric acid methyl ester]",> 300,240,> 300,–,–,–
"O=c1[nH]c2ccc(OCCN3CCc4ccccc4C3)cc2[nH]1 [Ex. 109, N-(2-(2-oxobenzimidazol-5-oxy)ethyl)-1,2,3,4-tetrahydroisoquinoline]",190,140,> 300,–,–,–
"CCCCN1CCC(Cc2ccccc2)CC1 [(B), 4-benzyl-1-butylpiperidine]",> 300,25,> 300,–,–,–
"C=CCN1CCCCC1Cc1ccccc1 (stereo not drawn) [Ex. 38(A), 1-Allyl-2-benzylpiperidine, hydrobromide]",–,–,–,25,72,65
"OCCCN1CCC(O)(Cc2ccccc2)CC1 [Ex. 87, 4-Benzyl-4-hydroxy-1-(3-hydroxypropyl)piperidine]",> 300,7,> 300,–,–,–
"CCOC(=O)CCCN1CCC(Cc2ccccc2)CC1 [Ex. 41, 4-(4-Benzylpiperidinyl) butyric acid ethyl ester hydrobromide salt]",> 300,> 300,> 300,–,–,–
"CCCCCCN1CCC(Cc2ccccc2)CC1 [(A), 4-benzyl-1-hexylpiperidine]",> 300,5,> 300,–,–,–
